Key:
[1] = previous studies; cited from earlier work
[2] = Net charge of peptide at neutral pH; format: physicochemical; settings: owing to 2 Arginine residues
[3] = test system: EAE; test: EAE murine model, intravenous versus subcutaneous administration of remote loaded nanoparticles (Example VIII); format: in vivo, C57BL/6J mice; settings: 100 ug subcutaneous by the tail base; after 60 days
[4] = test system: EAE; test: EAE murine model, effects of remote loaded nanoparticles on Treg response, EAE scores (Example IX); format: in vivo, C57BL/6J mice; settings: 10 ug subcutaneous by the tail base
Procedure: EAE was induced in a murine model as described in Example VIII. There were 3 treatment groups and one group that only received phosphate-buffered saline (PBS). For the treatment groups, 10 ug of self-antigen in 1 mL PBS was aliquoted from the MOG 38-50 loaded PLGA nanoparticles batch based on loading % determined by UPLC. The first treatment group received remote loaded nanoparticles injected subcutaneously by the tail base. The second treatment group received remote loaded nanoparticles injected intravenously in the tail. The third treatment group received 10 ug of free MOG 38-50 peptide injected subcutaneously by the tail base. EAE was assessed daily using the 0 to 5 clinical score scale described in Example VII.

Compound	charge at neutral pH [1]	charge [2]	EAE clinical score [3]	EAE score ([4]; after day 8)	EAE score ([4]; day 8)
CCNC(=O)[C@@H]1CCCN1C(=O)[C@H](CCCNC(=N)N)NC(=O)[C@H](CC(C)C)NC(=O)[C@@H](CC(C)C)NC(=O)[C@H](Cc1ccc(O)cc1)NC(=O)[C@H](CO)NC(=O)[C@H](Cc1c[nH]c2ccccc12)NC(=O)[C@H](Cc1c[nH]cn1)NC(=O)[C@@H]1CCC(=O)N1 [leuprolide]	~+1				
C[C@@H](O)[C@@H]1NC(=O)[C@H](CCCCN)NC(=O)[C@@H](Cc2c[nH]c3ccccc23)NC(=O)[C@H](Cc2ccccc2)NC(=O)[C@@H](NC(=O)[C@H](N)Cc2ccccc2)CSSC[C@@H](C(=O)N[C@H](CO)[C@@H](C)O)NC1=O [octreotide]	~+1.7				
MOG 38-50 (GWYRSPFSRVVHL) [free MOG 38-50 peptide]		> +1	3.5	~3.0	~2.5

Source: patent US20260083830A1, “BIODEGRADABLE POLYMERIC PARTICLES FOR DELIVERY OF POSITIVELY CHARGED THERAPEUTIC AGENTS” (REGENTS OF THE UNIVERSITY OF MICHIGAN, priority 2022, published 2026)
